Patent US20250228818A1, “PHARMACEUTICAL COMBINATION CONTAINING CAPSID PROTEIN INHIBITOR AND REVERSE TRANSCRIPTASE INHIBITOR” (priority 2021, published 2025)

System: rAAV8-1.3HBV
Experiment: AAV/HBV mouse model experiment (serum HBV DNA)
Type: in vivo, mouse (male, C57BL/6)
Conditions: mean ± standard error; for HBV DNA in mouse serum, day 7 / HBV DNA in mouse serum, day 14 / HBV DNA in mouse serum, day 21 / HBV DNA in mouse serum, day 28: i.g. QD day 0-27; for HBV DNA in mouse serum, day −2: day −2 (before first administration)
Protocol: rAAV8-1.3HBV (source: Beijing FivePlus Molecular Medicine Institute, titer: 1×10^12 v·g/mL) was used to establish an AAV/HBV mouse model (species: male, C57BL/6), and the mice were randomized into groups.
The compound of formula I was dissolved in DMSO, and PEG-400 was added to prepare a 1 mg/mL clear solution, which was then gradually diluted with the vehicle to 0.3 mg/mL, 0.1 mg/mL, and 0.03 mg/mL. After preparation, the dilutions were stored at room temperature.
Entecavir was dissolved in DMSO to prepare a 1 mg/mL solution, which was then gradually 1000-fold diluted with normal saline (NS) to 0.001 mg/mL. The dilution was aliquoted at 1 mL/tube to serve as a stock solution and stored in a freezer at −20° C. Each day, one tube was taken, and the solution in the tube was 10-fold diluted with NS to achieve the required administration concentration of 0.0001 mg/mL for daily administration.
rAAV8-1.3HBV (type D, ayw) was purchased from Beijing FivePlus Gene Technology Co., Ltd., with a titer of 1×10^12 v·g/mL.
Hepatitis B virus nucleic acid assay kit (Sansure Biotech Inc.), high-speed refrigerated centrifuge (Sorvall Legend), and real-time fluorescent quantitative PCR instrument (TL988).
AAV-HBV mouse model: rAAV8-1.3HBV was prepared into a solution with a concentration of 5×10^11 v·g/mL by sterile PBS in advance before injection. Each mouse was injected with 200 μL of the solution via the tail vein, with 1×10^11 v·g per mouse.
Blood sampling before grouping: On day 14 after the virus injection, all infected mice were subjected to blood sampling (approximately 100 μL per mouse) via the orbital vein for serum collection. After the whole blood was left to stand at room temperature for 30 min, serum was collected by centrifugation at 3000 rpm at 4° C. for 10 min. The collected serum was stored at −80° C. for HBV DNA, HBeAg and HBsAg detection.
Compound treatment: All mice were subjected to intragastric administration with the solvent or the compound. The day of the first administration was set as day 0 of the experiment, and the duration of administration was from day 0 to day 27. Entecavir was administered once daily (QD), and the compound of formula I was administered […]. The administration volume was 10 mL/kg.
The experimental method referred to the instructions of the hepatitis B virus nucleic acid assay kit. 5 μL of the nucleic acid release agent was added into each PCR reaction tube, and then 5 μL of the test serum, a negative control, a positive control and a quantitative reference substance were added separately. The mixture was then lysed for 10 min, and then 40 μL of PCR-mix was added, achieving a total volume of 50 μL in the system. Reaction conditions: 50° C. for 2 min, 1 cycle; 94° C. for 5 min, 1 cycle; 94° C. for 15 s, 57° C. for 30 s, 45 cycles; 25° C. for 10 s, 1 cycle. 2.4. Results in Tables 4-1 and 4-2

[1] = compound of formula I 10 mg/kg (iv), with entecavir 0.001 mg/kg (vi)
[2] = entecavir 0.001 mg/kg (ii), compound of formula I 1 mg/kg (iii), both (v)
[3] = groups: entecavir 0.001 mg/kg (ii), compound of formula I 1 mg/kg (iii), both (v)

Row | Compound | HBV DNA in mouse serum, day 7 [1] | HBV DNA in mouse serum, day 7 [2] | HBV DNA in mouse serum, day 14 [1] | HBV DNA in mouse serum, day 14 [2] | HBV DNA in mouse serum, day 21 [1] | HBV DNA in mouse serum, day 21 [2] | HBV DNA in mouse serum, day 28 [1] | HBV DNA in mouse serum, day 28 [2] | HBV DNA in mouse serum, day 35 (day 35 (administration ended day 27), compound of formula I 10 mg/kg (iv), with entecavir 0.001 mg/kg (vi)) | HBV DNA in mouse serum, day 42 (day 42 (administration ended day 27), compound of formula I 10 mg/kg (iv), with entecavir 0.001 mg/kg (vi)) | HBV DNA in mouse serum, day −2 (groups: compound of formula I 10 mg/kg (iv), with entecavir 0.001 mg/kg (vi)) | HBV DNA in mouse serum, day −2 [3]
1 | Cc1c(C(=O)Nc2ccc(F)c(C#N)c2)c(C)n(C)c1C(=O)C(=O)N[C@@H](C)C(F)(F)F [Compound of formula I, (S)—N-(3-cyano-4-fluorophenyl)-1,2,4-trimethyl-5-(2-oxo-2-((1,1,1-trifluoropropan-2-yl)amino)acetyl)-1H-pyrrole-3-carboxamide] | 4.72 ± 0.86 log10, copy/μL | 6.16 ± 0.36 log10, copy/μL | 3.97 ± 0.45 log10, copy/μL | 5.48 ± 0.34 log10, copy/μL | 3.97 ± 0.31 log10, copy/μL | 5.23 ± 0.33 log10, copy/μL | 3.75 ± 0.35 log10, copy/μL | 5.42 ± 0.38 log10, copy/μL | 3.77 ± 0.45 log10, copy/μL | 5.18 ± 0.74 log10, copy/μL | 7.97 ± 0.22 log10, copy/μL | 7.71 ± 0.27 log10, copy/μL
2 | C=C1[C@H](CO)[C@@H](O)C[C@@H]1n1cnc2c(=O)[nH]c(N)nc21 [Entecavir, 2-amino-9-[(1S,3R,4S)-4-hydroxy-3-hydroxymethyl-2-methylenecyclopentyl]-1,9-dihydro-6H-purin-6-one, reference compound] |  | 5.17 ± 0.54 log10, copy/μL |  | 5.30 ± 0.30 log10, copy/μL |  | 5.22 ± 0.46 log10, copy/μL |  | 5.46 ± 0.45 log10, copy/μL |  |  |  | 7.78 ± 0.28 log10, copy/μL
